Measured values taken from ChEMBL document CHEMBL3217548, “Biological activity and DNA binding studies of 2-substituted benzimidazo[1,2-a]quinolines bearing different amino side chains” (Medchemcomm, 2013).
Calls of active or inactive are those of the source. No cut-off for these calls is given here.

Legend:
Calf thymus DNA [1] = experiment: Binding affinity to calf thymus DNA assessed as bathochromic shift at 20 uM by UV/visible spectrophotometry; assay type: nucleic-acid assay; conditions: Bos taurus
Calf thymus DNA [2] = experiment: Binding affinity to calf thymus DNA assessed as hypochromic shift at 20 uM by UV/visible spectrophotometry; assay type: nucleic-acid assay; conditions: Bos taurus
[3] = Binding affinity to DNA (unknown origin) at 1 to 5 uM after 15 mins by DNA footprinting assay
Homo sapiens = organism: Homo sapiens; experiment: Inhibition of human DNA topoisomerase 2 assessed as inhibition of DNA cleavage
[4] = target: T1, DNA topoisomerase 1 (Homo sapiens) (UniProt P11387); experiment: Inhibition of human DNA topoisomerase 1 assessed as inhibition of DNA cleavage
T1 sequence (whole entry): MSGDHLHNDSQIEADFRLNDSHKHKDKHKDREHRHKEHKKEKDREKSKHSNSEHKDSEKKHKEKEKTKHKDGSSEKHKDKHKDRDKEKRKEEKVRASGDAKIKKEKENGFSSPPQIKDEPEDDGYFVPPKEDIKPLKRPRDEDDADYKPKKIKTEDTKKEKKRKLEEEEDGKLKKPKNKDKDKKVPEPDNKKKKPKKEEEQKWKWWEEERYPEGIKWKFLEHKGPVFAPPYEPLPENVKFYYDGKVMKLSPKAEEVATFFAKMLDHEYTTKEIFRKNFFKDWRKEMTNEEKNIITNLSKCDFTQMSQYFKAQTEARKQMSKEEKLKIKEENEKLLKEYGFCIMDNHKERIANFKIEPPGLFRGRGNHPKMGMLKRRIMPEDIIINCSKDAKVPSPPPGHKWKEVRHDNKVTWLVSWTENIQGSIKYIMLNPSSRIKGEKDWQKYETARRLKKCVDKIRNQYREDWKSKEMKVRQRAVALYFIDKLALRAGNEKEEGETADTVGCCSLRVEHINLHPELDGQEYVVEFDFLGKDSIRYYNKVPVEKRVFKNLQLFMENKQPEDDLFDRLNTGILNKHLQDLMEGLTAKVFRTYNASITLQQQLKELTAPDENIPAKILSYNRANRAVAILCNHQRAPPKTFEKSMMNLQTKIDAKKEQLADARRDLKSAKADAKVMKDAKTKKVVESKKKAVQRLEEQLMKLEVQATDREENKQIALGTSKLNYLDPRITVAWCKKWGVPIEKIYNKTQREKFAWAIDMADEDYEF

Escherichia coli [5] = experiment: Binding affinity to Escherichia coli pUC19 plasmid assessed as nicked DNA at 0.1 to 5 uM by ethidium bromide staining-based agarose gel electrophoresis
Escherichia coli [6] = experiment: Binding affinity to Escherichia coli pUC19 plasmid assessed as induction of topoisomerase1-mediated DNA relaxation at 2 uM incubated for 45 mins prior to topoisomerase1 addition by agarose gel electrophoresis
Calf thymus DNA [7] = experiment: Binding affinity to calf thymus DNA assessed as DNA intercalation at 1 to 50 uM by circular dichroism analysis; assay type: nucleic-acid assay; conditions: Bos taurus
Calf thymus DNA [8] = experiment: Binding affinity to calf thymus DNA assessed as change in melting temperature at 0.5 drug/DNA ratio by spectrophotometry; assay type: nucleic-acid assay; conditions: Bos taurus
[9] = Drug uptake in human H460 cell perinuclear region at 10 uM after 2 hrs by fluorescence microscopy; assay type: ADME, cell-based; conditions: h460, 2 h
[10] = Drug uptake in human H460 cell cytoplasm at 10 uM after 2 hrs by fluorescence microscopy; assay type: ADME, cell-based; conditions: h460, 2 h
HCT-116 [11] = experiment: Cell cycle arrest in human HCT116 cells assessed as accumulation at G2/M phase at 5 uM after 48 hrs by propidium iodide staining-based FACS analysis (reference value: 31 +/- 0.1 %); assay type: functional
HCT-116 [12] = experiment: Cell cycle arrest in human HCT116 cells assessed as accumulation at G2/M phase at 0.5 uM after 48 hrs by propidium iodide staining-based FACS analysis (reference value: 31 +/- 0.1 %); assay type: functional
HCT-116 [13] = experiment: Cell cycle arrest in human HCT116 cells assessed as accumulation at G2/M phase at 5 uM after 24 hrs by propidium iodide staining-based FACS analysis (reference value: 28 +/- 1 %); assay type: functional
HCT-116 [14] = experiment: Cell cycle arrest in human HCT116 cells assessed as accumulation at G2/M phase at 0.5 uM after 24 hrs by propidium iodide staining-based FACS analysis (reference value: 28 +/- 1 %); assay type: functional
HCT-116 [15] = experiment: Cell cycle arrest in human HCT116 cells assessed as accumulation at S phase at 5 uM after 48 hrs by propidium iodide staining-based FACS analysis (reference value: 32 +/- 1 %); assay type: functional
HCT-116 [16] = experiment: Cell cycle arrest in human HCT116 cells assessed as accumulation at S phase at 0.5 uM after 48 hrs by propidium iodide staining-based FACS analysis (reference value: 32 +/- 1 %); assay type: functional
HCT-116 [17] = experiment: Cell cycle arrest in human HCT116 cells assessed as accumulation at S phase at 5 uM after 24 hrs by propidium iodide staining-based FACS analysis (reference value: 39 +/- 0.2 %); assay type: functional
HCT-116 [18] = experiment: Cell cycle arrest in human HCT116 cells assessed as accumulation at S phase at 0.5 uM after 24 hrs by propidium iodide staining-based FACS analysis (reference value: 39 +/- 0.2 %); assay type: functional
HCT-116 [19] = experiment: Cell cycle arrest in human HCT116 cells assessed as accumulation at G1 phase at 5 uM after 48 hrs by propidium iodide staining-based FACS analysis (reference value: 37 +/- 2 %); assay type: functional
HCT-116 [20] = experiment: Cell cycle arrest in human HCT116 cells assessed as accumulation at G1 phase at 0.5 uM after 48 hrs by propidium iodide staining-based FACS analysis (reference value: 37 +/- 2 %); assay type: functional
HCT-116 [21] = experiment: Cell cycle arrest in human HCT116 cells assessed as accumulation at G1 phase at 5 uM after 24 hrs by propidium iodide staining-based FACS analysis (reference value: 33 +/- 1 %); assay type: functional
HCT-116 [22] = experiment: Cell cycle arrest in human HCT116 cells assessed as accumulation at G1 phase at 0.5 uM after 24 hrs by propidium iodide staining-based FACS analysis (reference value: 33 +/- 1 %); assay type: functional
HCT-116 [23] = experiment: Cell cycle arrest in human HCT116 cells assessed as accumulation at subG0/G1 phase at 5 uM after 48 hrs by propidium iodide staining-based FACS analysis (reference value: 4 +/- 1 %); assay type: functional
HCT-116 [24] = experiment: Cell cycle arrest in human HCT116 cells assessed as accumulation at subG0/G1 phase at 0.5 uM after 48 hrs by propidium iodide staining-based FACS analysis (reference value: 4 +/- 1 %); assay type: functional
HCT-116 [25] = experiment: Cell cycle arrest in human HCT116 cells assessed as accumulation at subG0/G1 phase at 5 uM after 24 hrs by propidium iodide staining-based FACS analysis (reference value: 4 +/- 1 %); assay type: functional
HCT-116 [26] = experiment: Cell cycle arrest in human HCT116 cells assessed as accumulation at subG0/G1 phase at 0.5 uM after 24 hrs by propidium iodide staining-based FACS analysis (reference value: 4 +/- 1 %); assay type: functional
MCF7 = experiment: Cytotoxicity against human MCF7 cells after 72 hrs by MTT assay; assay type: functional, cell-based; conditions: MCF7, 72 h
[27] = Cytotoxicity against human H460 cells after 72 hrs by MTT assay; assay type: functional, cell-based; conditions: NCI-H460, 72 h
HCT-116 [28] = experiment: Cytotoxicity against human HCT116 cells after 72 hrs by MTT assay; assay type: functional, cell-based; conditions: HCT-116, 72 h
DNA = experiment: Induction of DNA damage in plasmid DNA in E. coli S30 cell-free system assessed as inhibition of EGFP translation at 50 uM after 1 hr by fluorescence assay

In the case of `C[N+]1(C)CCN(c2ccc3cc(C#N)c4nc5ccccc5n4c3c2)CC1.[I-]`, the Activity (Calf thymus DNA [1]) is reported as “Active”, the Activity (Calf thymus DNA [2]) is reported as “Active” and the Activity [3] is reported as “Active”. For the same compound, the Activity (Homo sapiens) was “inactive”, the Activity [4] was “inactive” and the Activity (Escherichia coli [5]) was “Active”. The Activity (Escherichia coli [6]) was “Active”, the Activity (Calf thymus DNA [7]) was “Active” and the ΔTm (Calf thymus DNA [8]) was 15.4 °C. For the same compound, the Drug uptake [9] was “Active”, the Drug uptake [10] was “Active” and the Activity (HCT-116 [11]) was 28%. The Activity (HCT-116 [12]) was 31%, the Activity (HCT-116 [13]) was 29% and the Activity (HCT-116 [14]) was 32%. The Activity (HCT-116 [15]) was 29%, the Activity (HCT-116 [16]) was 32% and the Activity (HCT-116 [17]) was 33%. The Activity (HCT-116 [18]) was 36%, the Activity (HCT-116 [19]) was 43% and the Activity (HCT-116 [20]) was 37%. It also gave an Activity (HCT-116 [21]) of 38%, an Activity (HCT-116 [22]) of 32% and an Activity (HCT-116 [23]) of 5%. It also gave an Activity (HCT-116 [24]) of 6%, an Activity (HCT-116 [25]) of 7% and an Activity (HCT-116 [26]) of 6%. The IC50 (MCF7) was 2400 nM, the IC50 [27] was 2000 nM and the IC50 (HCT-116 [28]) was 600 nM. For the same compound, the inhibition at 50 µM (DNA) was 45%.
